Results published in patent publication US4022791A (priority 1975, dated 1977).

Assays:
Rats [1] = tested on: Rats; set-up: Rat Jump .5 hr (current at which the animal first jumps) / Rat Jump .5 hr, second value printed in parentheses / Rat Jump 2 hr (current at which the animal first jumps): unit not given here; settings: in vivo, ip
mice [2] = settings: mouse, in vivo, ip
mice [3] = settings: mouse, in vivo, ip; remark: listed apart in the source
mice [4] = assay: animal or person; assay type: in vivo, mouse; settings: ip
mice [5] = assay: Toxicity and adverse effects noted (comments), mice; assay type: in vivo, mouse; settings: at 32 mg./kg.
Source text: (§1) The tabulated test results include comments regarding toxicity and adverse effects noted with certain compounds.

Rats [6] = assay: Toxicity and adverse effects noted (comments), rats; assay type: in vivo, rat; settings: for loss of righting reflex (rats): at 100 mg./kg.
Source text: as §1

[7] = Analgesic and tranquilizing effectiveness, summary of Examples 10 and 11; assay type: in vivo
[8] = Toxicity and adverse effects noted (comments), species not stated; assay type: in vivo; settings: at 100 mg./kg.
Source text: as §1

Rats [9] = settings: rat, in vivo, ip

COc1ccc(Cl)c2c1CCC(CN1CCC(C(=O)N3CCCC3)CC1)=C2
Rat Jump 2 hr (current at which the animal first jumps) (Rats [1]): 1.2
Rat Jump .5 hr (current at which the animal first jumps) (Rats [1]): 1.2
Hot Plate 2 hr (percentage of mice showing analgesia) (mice [2]): 0
Hot Plate .5 hr (percentage of mice showing analgesia) (mice [2]): 25
Tail Flick 2 hr (percentage of analgesia response) (mice [3]): 0
Tail Flick .5 hr (percentage of analgesia response) (mice [3]): 25
Tail Pinch 2 hr (percentage of mice showing analgesia) (mice [4]; mouse, in vivo): 0
Tail Pinch .5 hr (percentage of mice showing analgesia) (mice [4]; mouse, in vivo): 0
mice died (mice [5]): 1/5

COc1ccc(Cl)c2c1CCC(CN1CCC(C(=O)N3CCCCC3)CC1)=C2
Rat Jump 2 hr (current at which the animal first jumps) (Rats [1]): 1.2
Rat Jump .5 hr (current at which the animal first jumps) (Rats [1]): 1.6
Hot Plate 2 hr (percentage of mice showing analgesia) (mice [2]): 0
Hot Plate .5 hr (percentage of mice showing analgesia) (mice [2]): 20
Tail Flick 2 hr (percentage of analgesia response) (mice [3]): 0
Tail Flick .5 hr (percentage of analgesia response) (mice [3]): 40
Tail Pinch 2 hr (percentage of mice showing analgesia) (mice [4]; mouse, in vivo): 0
Tail Pinch .5 hr (percentage of mice showing analgesia) (mice [4]; mouse, in vivo): 0
loss of righting reflex (rats) (Rats [6]): 2/5

COc1ccc(Cl)c2c1CCC(CN1CCC(NC(=O)N3CCCCC3)CC1)=C2
Rat Jump 2 hr (current at which the animal first jumps) (Rats [1]): 1.2
Rat Jump .5 hr (current at which the animal first jumps) (Rats [1]): 1.2
Hot Plate 2 hr (percentage of mice showing analgesia) (mice [2]): 0
Hot Plate .5 hr (percentage of mice showing analgesia) (mice [2]): 0
Tail Flick 2 hr (percentage of analgesia response) (mice [3]): 0
Tail Flick .5 hr (percentage of analgesia response) (mice [3]): 0
Tail Pinch 2 hr (percentage of mice showing analgesia) (mice [4]; mouse, in vivo): 0
Tail Pinch .5 hr (percentage of mice showing analgesia) (mice [4]; mouse, in vivo): 0
loss of righting reflex (rats) (Rats [6]): 1/5

COc1ccc(Cl)c2c1CCC(CNCC1CC1)=C2
Rat Jump 2 hr (current at which the animal first jumps) (Rats [1]): 1.2
Rat Jump .5 hr (current at which the animal first jumps) (Rats [1]): 1.2
Hot Plate 2 hr (percentage of mice showing analgesia) (mice [2]): 10
Hot Plate .5 hr (percentage of mice showing analgesia) (mice [2]): 40
Tail Flick 2 hr (percentage of analgesia response) (mice [3]): 0
Tail Flick .5 hr (percentage of analgesia response) (mice [3]): 20
Tail Pinch 2 hr (percentage of mice showing analgesia) (mice [4]; mouse, in vivo): 0
Tail Pinch .5 hr (percentage of mice showing analgesia) (mice [4]; mouse, in vivo): 40
rats died (Rats [6]; at 32 mg./kg.): 1/5

COc1ccc(Cl)c2c1CCC(CN1CCC(OC(C)=O)(c3ccccc3)CC1)=C2 [1-(2-[8-Chloro-5-methoxy-3,4-dihydronaphthyl]methyl)-4-acetoxy-4-phenylpiperidine]
analgesic and tranquilizing effectiveness [7]: outstanding effectiveness

CCC(=O)O[C@](Cc1ccccc1)(c1ccccc1)[C@H](C)CN(C)C [d-Propoxyphene, reference compound]
Rat Jump .5 hr (current at which the animal first jumps) (Rats [1]): 1.2
Hot Plate 2 hr (percentage of mice showing analgesia) (mice [2]): 0
Hot Plate .5 hr (percentage of mice showing analgesia) (mice [2]): 60
Tail Flick 2 hr (percentage of analgesia response) (mice [3]): 20
Tail Flick .5 hr (percentage of analgesia response) (mice [3]): 40
ED50 (mice [4]; Mus musculus, read-out: Tail Pinch ED50): 11.5 mg/kg
toxicity [8]: toxic

COc1ccc(Cl)c2c1CCC(CN1CCC(OC(C)=O)(c3ccccc3)CC1)=C2 [drawing 79]
Rat Jump 2 hr (current at which the animal first jumps) (Rats [1]): > 2.2
Rat Jump .5 hr (current at which the animal first jumps) (Rats [1]): > 2.2
Hot Plate 2 hr (percentage of mice showing analgesia) (mice [2]): 80
Hot Plate .5 hr (percentage of mice showing analgesia) (mice [2]): 100
Tail Flick 2 hr (percentage of analgesia response) (mice [3]): 70
Tail Flick .5 hr (percentage of analgesia response) (mice [3]): 90
Tail Pinch 2 hr (percentage of mice showing analgesia) (mice [4]; mouse, in vivo): 100
Tail Pinch .5 hr (percentage of mice showing analgesia) (mice [4]; mouse, in vivo): 100

COc1ccc(Cl)c2c1CCC(CN1CCCC1)=C2 [pyrrolidino, 1-(2-[3,4-Dihydro-8-chloro-5-methoxynaphthyl]methyl)pyrrolidine]
Rat Jump 2 hr (current at which the animal first jumps) (Rats [1]): 2.2
Rat Jump .5 hr (current at which the animal first jumps) (Rats [1]): 1.2
Rat Jump .5 hr, second value printed in parentheses (Rats [1]): 2.2
Hot Plate 2 hr (percentage of mice showing analgesia) (mice [2]): 0
Hot Plate .5 hr (percentage of mice showing analgesia) (mice [2]): 80
Tail Flick 2 hr (percentage of analgesia response) (mice [3]): 0
Tail Flick .5 hr (percentage of analgesia response) (mice [3]): 60
Tail Pinch 2 hr (percentage of mice showing analgesia) (mice [4]; mouse, in vivo): 0
Tail Pinch .5 hr (percentage of mice showing analgesia) (mice [4]; mouse, in vivo): 20

Codeine Sulfate [reference compound]
Rat Jump .5 hr (current at which the animal first jumps) (Rats [1]): > 2.2
Hot Plate 2 hr (percentage of mice showing analgesia) (mice [2]): 60
Hot Plate .5 hr (percentage of mice showing analgesia) (mice [2]): 80
Tail Flick 2 hr (percentage of analgesia response) (mice [3]): 50
Tail Flick .5 hr (percentage of analgesia response) (mice [3]): 100
Tail Pinch ED50 (mice [4]; mouse, in vivo): 15.4 mg/kg
Amphetamine Antagonism Activity (dosage approximately neutralizing the amphetamine effect) (Rats [9]): > 32 mg/kg
